Laboratory results from US9045445B2, “Glycine transporter-1 inhibitors, methods of making them, and uses thereof” (Albany Molecular Research, Inc., priority 2010, dated 2015).
Structures can show the parent of a compound that is named as a salt. Where two headings read alike, the source gives them in different places.

Key:
[1] = molecular target: T1, glycine transporter-1 (GlyT-1) (Homo sapiens, UniProt P48067); assay: [14C]glycine uptake assay in JAR cells endogenously expressing GlyT-1 (scintillation proximity); type: cell-based
T1 construct: JAR cells (ATCC#HTB-144), which endogenously express GlyT-1; host or cells: JAR human choriocarcinoma cells
T1 sequence (P48067 1-706): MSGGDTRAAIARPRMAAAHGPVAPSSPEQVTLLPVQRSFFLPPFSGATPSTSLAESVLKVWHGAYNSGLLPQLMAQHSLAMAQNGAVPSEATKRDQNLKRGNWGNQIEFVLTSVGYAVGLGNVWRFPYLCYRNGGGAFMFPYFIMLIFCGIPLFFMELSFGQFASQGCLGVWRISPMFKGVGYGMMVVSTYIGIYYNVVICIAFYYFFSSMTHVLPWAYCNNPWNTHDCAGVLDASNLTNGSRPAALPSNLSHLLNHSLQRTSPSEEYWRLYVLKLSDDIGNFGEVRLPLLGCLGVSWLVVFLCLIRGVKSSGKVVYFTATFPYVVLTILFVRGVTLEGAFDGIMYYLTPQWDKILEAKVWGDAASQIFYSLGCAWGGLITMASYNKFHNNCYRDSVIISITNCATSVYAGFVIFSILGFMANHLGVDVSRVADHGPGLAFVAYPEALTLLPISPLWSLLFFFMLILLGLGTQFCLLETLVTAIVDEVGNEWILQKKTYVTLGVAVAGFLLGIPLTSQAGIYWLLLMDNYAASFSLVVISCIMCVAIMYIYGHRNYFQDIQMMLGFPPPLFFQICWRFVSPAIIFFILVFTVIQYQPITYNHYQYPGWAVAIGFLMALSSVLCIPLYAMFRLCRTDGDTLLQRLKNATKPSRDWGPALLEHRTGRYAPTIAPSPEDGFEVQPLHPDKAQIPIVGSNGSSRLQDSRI
In short: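 Human choriocarcinoma JAR cells (endogenous GlyT-1) attached overnight, then pre-incubated 10 min at room temperature with compound in pH 7.4 Hepes uptake buffer containing 5 mM alanine and 0.75% DMSO. Uptake of 5 μM [14C]glycine over 3 h at 37 °C read by scintillation proximity; IC50 from four-parameter fit of nine-point curves.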

[2] = molecular target: T2, glycine transporter-2 (GlyT-2) (Homo sapiens, UniProt Q9Y345); assay: [14C]glycine uptake assay in HEK-GlyT-2 transfected cells; type: cell-based; details: HEK-GlyT-2 cells
T2 construct: expressed in transfected cells
T2 sequence (Q9Y345 1-797): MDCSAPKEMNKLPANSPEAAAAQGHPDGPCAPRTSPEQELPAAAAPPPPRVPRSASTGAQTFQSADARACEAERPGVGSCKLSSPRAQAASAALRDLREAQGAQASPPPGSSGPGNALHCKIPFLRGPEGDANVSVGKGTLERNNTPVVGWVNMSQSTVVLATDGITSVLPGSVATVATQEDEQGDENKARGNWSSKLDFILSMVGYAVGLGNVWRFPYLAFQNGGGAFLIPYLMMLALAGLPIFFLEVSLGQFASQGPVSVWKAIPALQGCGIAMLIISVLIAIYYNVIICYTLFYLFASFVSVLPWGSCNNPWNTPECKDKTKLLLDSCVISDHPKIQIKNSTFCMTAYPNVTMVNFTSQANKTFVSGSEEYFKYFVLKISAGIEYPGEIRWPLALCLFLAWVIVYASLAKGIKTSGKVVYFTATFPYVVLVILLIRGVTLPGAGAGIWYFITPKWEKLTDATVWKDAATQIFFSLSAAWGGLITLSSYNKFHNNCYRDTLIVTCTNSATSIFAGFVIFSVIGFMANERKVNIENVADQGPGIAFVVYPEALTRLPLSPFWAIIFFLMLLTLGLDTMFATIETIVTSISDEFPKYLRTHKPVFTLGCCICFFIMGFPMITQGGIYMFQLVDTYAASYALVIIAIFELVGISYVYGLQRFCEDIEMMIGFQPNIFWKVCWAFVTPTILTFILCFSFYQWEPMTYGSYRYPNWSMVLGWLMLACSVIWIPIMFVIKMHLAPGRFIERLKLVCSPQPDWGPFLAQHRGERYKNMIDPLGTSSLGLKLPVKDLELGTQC

[3] = JAR cells, [14C]glycine 5 μM, 3 hour incubation, read-out: GlyT-1 IC50

Compound	IC50 [1, 3] [nM]	IC50 [2] [nM]	IC50 ([1]; GlyT-1 IC50 (nM)) [nM]
Cn1cc(S(=O)(=O)N2CCN(C3(CNC(=O)c4c(F)cccc4F)CCCCC3)CC2)nn1 [compound 114, 2,6-Difluoro-N-((1-(4-(1-methyl-1H-1,2,3-triazol-4-ylsulfonyl)piperazin-1-yl)cyclohexyl)methyl) benzamide Hydrochloride]	2	> 75000	–
CCCS(=O)(=O)N1CCN(C2(CNC(=O)c3ccc(F)cc3F)CCCCC2)CC1 [compound 39, 2,4-Difluoro-N-((1-(4-(propylsulfonyl)piperazin-1-yl)cyclohexyl)methyl) benzamide Hydrochloride]	132	≥ 75000	–
CCCS(=O)(=O)N1CCN(C2(CNC(=O)c3c(OC)cc(F)cc3SC)CCCC2)CC1 [compound 74, 4-Fluoro-2-methoxy-6-(methylthio)-N-((1-(4-(propylsulfonyl)piperazin-1-yl)cyclopentyl)methyl) benzamide Hydrochloride]	131	> 75000	–
Cn1cc(S(=O)(=O)N2CCN(C3(CNC(=O)c4ccc(F)cc4C(F)(F)F)CCC(F)(F)CC3)CC2)nn1 [compound 233, N-((4,4-Difluoro-1-(4-(1-methyl-1H-1,2,3-triazol-4-ylsulfonyl)piperazin-1-yl)cyclohexyl)methyl)-4-fluoro-2-(trifluoromethyl)benzamide Hydrochloride]	1	> 75000	–
Nc1cccc(Cl)c1C(=O)NCC1(N2CCN(S(=O)(=O)c3ccccc3)CC2)CCCCC1 [compound 89, 2-Amino-6-chloro-N-((1-(4-(phenylsulfonyl)piperazin-1-yl)cyclohexyl)methyl) benzamide Hydrochloride]	2290	> 75000	–
Cn1cnc(S(=O)(=O)N2CCN(C3(CNC(=O)c4c(F)cccc4F)CCCOC3)CC2)c1 (centres unmarked) [compound 127, 2,6-Difluoro-N-((3-(4-(1-methyl-1H-imidazol-4-ylsulfonyl)piperazin-1-yl)tetrahydro-2H-pyran-3-yl)methyl)benzamide Hydrochloride]	369	> 75000	–
CCCS(=O)(=O)N1CCN(C2(CNC(=O)c3cccc(C(F)(F)F)c3Cl)CCCCC2)CC1 [compound 22, 2-Chloro-N-((1-(4-(propylsulfonyl)piperazin-1-yl)cyclohexyl)methyl)-3-(trifluoromethyl) benzamide Hydrochloride]	–	41300	77
CCCS(=O)(=O)N1CCN(C2(CNC(=O)c3ccc(F)cc3OC)CCCCCC2)CC1 [compound 52, 4-Fluoro-2-methoxy-N-((1-(4-(propylsulfonyl)piperazin-1-yl)cycloheptyl)methyl) benzamide Hydrochloride]	404	> 75000	–
CCCS(=O)(=O)N1CCN(C2(CNC(=O)c3c(C)cc(C)cc3C)CCCCC2)CC1 [compound 36, 2,4,6-Trimethyl-N-((1-(4-(propylsulfonyl)piperazin-1-yl)cyclohexyl)methyl) benzamide Hydrochloride]	39	> 75000	–
CCCS(=O)(=O)N1CCN(C2(CNC(=O)c3ccc(OC(F)(F)F)cc3)CCCCC2)CC1 [compound 6, N-((1-(4-(Propylsulfonyl)piperazin-1-yl)cyclohexyl)methyl)-4-(trifluoromethoxy) benzamide Hydrochloride]	118	28600	–
CCCS(=O)(=O)N1CCN(C2(CNC(=O)c3ccccc3Cl)CCC(F)(F)CC2)CC1 [compound 139, 2-Chloro-N-((4,4-difluoro-1-(4-(propylsulfonyl)piperazin-1-yl)cyclohexyl)methyl) benzamide Hydrochloride]	54	> 75000	–

More lines, in order of falling IC50 [1, 3], values ahead:

IC50 [1, 3] [nM]	IC50 [2] [nM]	Compound	IC50 ([1]; GlyT-1 IC50 (nM)) [nM]
647	> 75000	CCCS(=O)(=O)N1CCN(C2(CNC(=O)c3ccc(C#N)cc3)CCCCC2)CC1 [compound 17, 4-Cyano-N-((1-(4-(propylsulfonyl)piperazin-1-yl)cyclohexyl)methyl) benzamide Hydrochloride]	–
204	> 75000	CCCS(=O)(=O)N1CCN(C2(CNC(=O)c3cccc(OC)c3Cl)CCCCCC2)CC1 [compound 65, 2-Chloro-3-methoxy-N-((1-(4-(propylsulfonyl)piperazin-1-yl)cycloheptyl)methyl) benzamide Hydrochloride]	–
191	> 45000	CCCS(=O)(=O)N1CCN(C2(CNC(=O)c3c(C)cc(F)cc3OC)CCOCC2)CC1 [compound 121, 4-Fluoro-2-methoxy-6-methyl-N-((4-(4-(propylsulfonyl)piperazin-1-yl)tetrahydro-2H-pyran-4-yl)methyl)benzamide Hydrochloride]	–
155	> 75000	CCS(=O)(=O)N1CCN(C2(CNC(=O)c3c(C)cc(F)cc3OC)CCCCCC2)CC1 [compound 87, N-((1-(4-(Ethylsulfonyl)piperazin-1-yl)cycloheptyl)methyl)-4-fluoro-2-methoxy-6-methylbenzamide Hydrochloride]	–
133	> 75000	CCCS(=O)(=O)N1CCN(C2(CNC(=O)c3ccc(C(F)(F)F)cc3Cl)CCC(F)(F)CC2)CC1C (centres unmarked) [compound 256, 2-Chloro-N-((4,4-difluoro-1-(3-methyl-4-(propylsulfonyl)piperazin-1-yl)cyclohexyl)methyl)-4-(trifluoromethyl) benzamide Hydrochloride]	–
99	> 75000	COc1cc(F)cc(C)c1C(=O)NCC1(N2CCN(S(=O)(=O)CC3CC3)CC2)CCCCCC1 [compound 86, N-((1-(4-(Cyclopropylmethyl-sulfonyl)piperazin-1-yl)cycloheptyl)methyl)-4-fluoro-2-methoxy-6-methylbenzamide Hydrochloride]	–
29	> 75000	COc1cc(F)cc(C)c1C(=O)NCC1(N2CCN(S(=O)(=O)CC3CC3)CC2)CCCCC1 [compound 79, N-((1-(4-(Cyclopropylmethyl-sulfonyl)piperazin-1-yl)cyclohexyl)methyl)-4-fluoro-2-methoxy-6-methylbenzamide Hydrochloride]	–
25	> 75000	CCCS(=O)(=O)N1CCN(C2(CNC(=O)c3c(F)cc(Cl)cc3F)CCC(F)(F)CC2)CC1 [compound 259, 4-Chloro-N-((4,4-difluoro-1-(4-(propylsulfonyl)piperazin-1-yl)cyclohexyl)methyl)-2,6-difluorobenzamide Hydrochloride]	–
21	> 75000	CCCS(=O)(=O)N1CCN(C2(CNC(=O)c3ccc(Cl)cc3C3CC3)CCC(F)(F)CC2)CC1 [compound 253, 4-Chloro-2-cyclopropyl-N-((4,4-difluoro-1-(4-(propylsulfonyl)piperazin-1-yl)cyclohexyl)methyl) benzamide Hydrochloride]	–
9	> 75000	Cn1cnc(S(=O)(=O)N2CCN(C3(CNC(=O)c4ccccc4Cl)CCC(F)(F)CC3)CC2)c1 [compound 160, 2-Chloro-N-((4,4-difluoro-1-(4-(1-methyl-1H-imidazol-4-ylsulfonyl)piperazin-1-yl)cyclohexyl)methyl) benzamide Hydrochloride]	–
7	> 75000	CC1CN(C2(CNC(=O)c3ccc(C(F)(F)F)cc3Cl)CCC(F)(F)CC2)CCN1S(=O)(=O)c1cn(C)nn1 (racemic) [compound 227, (±)-2-Chloro-N-((4,4-difluoro-1-(3-methyl-4-(1-methyl-1H-1,2,3-triazol-4-ylsulfonyl)piperazin-1-yl)cyclohexyl)methyl)-4-(trifluoromethyl)benzamide Hydrochloride]	–
